Results reported in patent US20260207648A1, “NOVEL SMALL MOLECULE KRAS INHIBITOR: DRUGGING UNDRUGGABLE TARGETS FOR CANCER THERAPEUTICS” (PILLAI UNIVERSAL LLC, priority 2022, published 2026).
Read-outs that look alike come from different tables or passages of the source.

How the values were obtained:
[1] = test system: MCF7, HT-29, HEP G2, A549; assay: Cell viability (MTT assay) on human adenocarcinoma cell lines; assay type: cell-based; conditions: 48 hours, 250 to 0.97 nmol/L
Description: (§1) Several cell lines including human breast carcinoma (MCF7), colon adenocarcinoma (HT-29), Liver adenocarcinoma (HEP G2), Lung adenocarcinoma (A549) were treated with a range of COMPOUND I for 48 hours and the percentage of cell viability was determined by MTT assay. The average total viable cells were precisely calculated and anti-proliferative effects were determined. […] The drug were also tested on normal monkey Kidney epithelial cells.

[2] = test system: normal monkey Kidney epithelial cells; assay: MTT cytotoxicity on normal cells; assay type: cell-based; conditions: normal monkey Kidney epithelial cells versus cancer cell lines
Description: as §1

apoptosis = assay: DNA fragmentation assay / apoptosis quantitation; assay type: cell-based
Description: (§2) To confirm that COMPOUND I induced cell apoptosis, DNA fragmentation assay, was performed. […] Furthermore, the expression levels of proteins related to apoptosis and cell cycle progression by western blotting were examined. Cells were treated with COMPOUND I at different concentrations and total proteins were isolated. Beta-Actin was used as an internal control. […] The effect of drugs on the cleavage of procaspase 9 and procaspase 3 were examined. […] Caspase-3 is a key regulator of mitochondrial dependent and independent apoptotic pathways and activation of caspase-3 leads to cleavage of several substrates including PARP.

[3] = test system: Bcl-2, Bax, caspase-9, caspase-3, PARP; assay: Western blotting of apoptosis-related proteins; assay type: cell-based; conditions: western blot
Description: as §2

KRAS Mutated cell lines = assay: Flow cytometry cell cycle distribution; assay type: cell-based
Description: (§3) Flow cytometry analysis was performed to verify whether COMPOUND I induced apoptosis was related to cell cycle arrest. Cell cycle distribution in KRAS Mutated cell lines was quantified after treatment with different COMPOUND I concentrations. […] Therefore, it was attempted to determine whether COMPOUND I treatment also can influence the expression level of G1/S phase cell cycle regulatory proteins.

[4] = test system: p53, p21, p27, Cyclin B, cdc2, CDK2, CDK4, CDK6, Cyclin D1, Cyclin D3, pRb; assay: Protein levels of cell cycle regulatory proteins; assay type: cell-based
Description: as §3

Control cell lines = assay: Cell-cycle regulation and apoptosis in control cell lines; assay type: cell-based; conditions: control cell lines compared with KRAS Mutated cell lines
Akt, mTOR, ERK = assay: Akt/mTOR/ERK pathway activation; assay type: cell-based
From the text: In order to better understand the molecular basis of COMPOUND I induced cell cycle arrest and apoptosis, the expression of Akt and mTOR was investigated with various concentrations of COMPOUND I. Akt/mTOR is an important cell survival pathway and activated Akt inhibits apoptosis leading to cell survival. […] Additionally, it was examined whether COMPOUND I effect involved ERK signaling pathway and found the decreased activation of ERK.

[5] = test system: PANC-1, MIA PaCa-2, NCIH1975, A549 (K-Ras G12S mutant), NCI-H1299 (N-Ras Q61K mutant); assay: Cellular proliferation of Ras wild type/mutant cell lines; assay type: cell-based; conditions: Homo sapiens; range over all tested cell lines
Description: The inhibition of compounds COMPOUND I on the cellular proliferation of […] cell lines were measured: The three cell lines in the signaling studies (PANC-1, MIA PaCa-2, NCIH1975), and the non-small cell lung cancer lines A549 (K-Ras G12S mutant) and NCI-H1299 (N-Ras Q61K mutant). FIG. 7 and IC50 values measured in these studies. […] Consistent with the notion that these compounds are pan-Ras superfamily inhibitors, it is reasonable to speculate that they can inhibit pathways downstream of several members of the Rassuperfamily.

MEK, Erk1/2 and Akt = assay: Inhibition of Ras downstream pathways (summary over readouts and cell lines); assay type: cell-based; conditions: Homo sapiens; PANC-1, MIA PaCa-2 and NCI-H1975; read-out: IC50 phosphorylation and activation of MEK, Erk1/2 and Akt
Description: (§4) The inhibitory effects of compounds COMPOUND I was tested on Ras-associated signal transduction pathways in three different human cell lines: the pancreatic cell-lines PANC-1 (K-Ras G12D mutant), MIA PaCa-2 (K-Ras G12C mutant), and the non-small cell lung cancer cell-line NCI-H1975 (KRas WT). FIG. 8 illustrate the inhibitory effects of COMPOUND I on phosphorylation and activation of MEK, Erk1/2 and Akt in those three cell lines. […] In contrast, the IC50s of compound COMPOUND I on the phosphorylation and activation of MEK and Erk1/2 were approximately 2 μM in PANC-1 and MIA PaCa-2 and 3 μM in NCI-H1975; and, of Akt, were approximately 5 μM in PANC-1 and MIA PaCa-2 and 5 μM in NCIH1975 (FIG. 8).

MEK = assay: Inhibition of Ras downstream pathways: MEK phosphorylation; assay type: cell-based; conditions: Homo sapiens, read-out: IC50 phosphorylation and activation of MEK
Description: as §4

Erk1/2 = assay: Inhibition of Ras downstream pathways: Erk1/2 phosphorylation; assay type: cell-based; conditions: Homo sapiens, read-out: IC50 phosphorylation and activation of Erk1/2
Description: as §4

Akt = assay: Inhibition of Ras downstream pathways: Akt phosphorylation; assay type: cell-based; conditions: Homo sapiens, read-out: IC50 phosphorylation and activation of Akt
Description: as §4

Ras-GTP complex = assay: Ras pull-down assay; assay type: cell-based, human; conditions: PANC-1, MIA PaCa-2 and NCIH1975; read-out: IC50 Ras-GTP complex formation
Description: As a follow up to the downstream assays, the ability of COMPOUND I was also measured to inhibit Ras-GTP complex formation in the three tested cell-lines (PANC-1, MIA PaCa-2 and NCIH1975) using a Ras pull-down assay. […] These values correlate well with the IC50 values obtained for the inhibition of MEK, Erk1/2 and Akt phosphorylation presented in FIGS. 2 and 3.

Structure (SMILES): COc1cc(C(C)=O)ccc1C(=O)COP(=O)(O)OP(=O)(O)OP(=O)(O)OCC1OC(n2cnc3c(=O)[nH]c(Nc4ccc(O)cc4)nc32)C(O)C1O (centres unmarked) [COMPOUND I]
- proliferation / cell viability [1]: inhibited the proliferation of all the cell lines in a dose-dependent manner
- sensitivity to induced cytotoxicity [2]: less sensitive
- DNA fragmentation (ladder pattern in agarose gels) (apoptosis; 48 hours, all concentrations tested): lead to DNA fragmentation
- apoptosis (quantitative analysis) (apoptosis; treated cells): significant increase of apoptosis
- cleavage of PARP into 116 kDa and 84 kDa fragment [3]: induced the cleavage of PARP
- cleavages of procaspase 9 and procaspase 3 [3]: induced in a dose-dependent manner
- expression of Bcl-2 ([3]; dose dependent): down regulated
- expression of proapoptotic proteins Bax, caspase-9 and caspase-3 ([3]; dose dependent): induced expression
- cells showing G1/S phase arrest (KRAS Mutated cell lines): 23.98%
- number of cells in the G2/M phase (KRAS Mutated cell lines): 76.89%
- expression levels of p21, p27 and p53 ([4]; KRAS Mutated cell lines): Greater expression levels
- expression levels of CDK4, CDK6, Cyclin D1, Cyclin D3, pRb ([4]; dose-dependent): decreased significantly
- expression levels of Cyclin B, cdc2, CDK2 ([4]; dose-dependent): decreased significantly
- changes in cell-cycle regulation and apoptosis (Control cell lines): better protected
- total Akt and mTOR levels (Akt, mTOR, ERK): remained constant
- phosphorylation of Akt and mTOR (Akt, mTOR, ERK; Serine 473 and Serine 2448, concentration-dependent): suppressed
- phosphorylation of ERK (Akt, mTOR, ERK; Threonine 202 and Tyrosine 204): suppressed
- IC50 [5]: 0.45 to 1.2 µM
- IC50 (MEK, Erk1/2 and Akt): 1 to 3 µM
- IC50 (MEK; MIA PaCa-2 (K-Ras G12C mutant)): ~2 µM
- IC50 (MEK; NCI-H1975 (KRas WT)): ~3 µM
- IC50 (MEK; PANC-1 (K-Ras G12D mutant)): ~2 µM
- IC50 (Erk1/2; MIA PaCa-2 (K-Ras G12C mutant)): ~2 µM
- IC50 (Erk1/2; NCI-H1975 (KRas WT)): ~3 µM
- IC50 (Erk1/2; PANC-1 (K-Ras G12D mutant)): ~2 µM
- IC50 (Akt; NCI-H1975, NCIH1975 (KRas WT)): ~5 µM
- IC50 (Akt; MIA PaCa-2 (K-Ras G12C mutant)): ~5 µM
- IC50 (Akt; PANC-1 (K-Ras G12D mutant)): ~5 µM
- IC50 (Ras-GTP complex): 2 to 3 µM
